Assay results from ChEMBL document CHEMBL1201862, “PubChem BioAssay data set” (2004).
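96-well plates; 48 h exposure; 5 concentrations. Endpoints by linear interpolation between flanking doses. Not reached: highest tested concentration assigned. Abbreviation: GI50, concentration required for 50% inhibition of growth.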 The source made the active and inactive calls. Cut-off read from the data, not from the text of the source: active = GI50 up to about 1.1 µM and inactive = higher.

Assays:
Assay in all cases: growth of human tumour cells (NCI), 48 h
M19-MEL = system: M19-MEL
DMS-273 = system: DMS-273
OVCAR-8 = system: OVCAR-8
COLO 205 = system: COLO 205
UO-31 = system: UO-31
HCT-15 = system: HCT-15
CAKI-1 = system: CAKI-1
SW-620 = system: SW-620
UACC-62 = system: UACC-62
IGROV-1 = system: IGROV-1
MOLT-4 = system: MOLT-4
KM-20L2 = system: KM-20L2
RPMI-8226 = system: RPMI-8226
TK-10 = system: TK-10
HOP-62 = system: HOP-62
M14 = system: M14
Malme-3M = system: Malme-3M
NCI-H23 = system: NCI-H23
SK-MEL-2 = system: SK-MEL-2
RXF 631 = system: RXF 631
DLD-1 = system: DLD-1
K562 = system: K562
SF-539 = system: SF-539
NCI-H460 = system: NCI-H460
DMS-114 = system: DMS-114
U-251 = system: U-251
SN12C = system: SN12C
OVCAR-5 = system: OVCAR-5
OVCAR-3 = system: OVCAR-3
A549 = system: A549
SNB-19 = system: SNB-19
786-0 = system: 786-0
SF-295 = system: SF-295
LOX IMVI = system: LOX IMVI
LXFL 529 = system: LXFL 529
HL-60 = system: HL-60
SK-MEL-5 = system: SK-MEL-5
SR = system: SR
KM12 = system: KM12
NCI-H522 = system: NCI-H522
OVCAR-4 = system: OVCAR-4
ACHN = system: ACHN
CCRF-CEM = system: CCRF-CEM
SF-268 = system: SF-268
HCC 2998 = system: HCC 2998
NCI-H226 = system: NCI-H226
SK-MEL-28 = system: SK-MEL-28
A498 = system: A498
RXF 393 = system: RXF 393
SNB-75 = system: SNB-75
SK-OV-3 = system: SK-OV-3
EKVX = system: EKVX
HT-29 = system: HT-29
UACC-257 = system: UACC-257
SNB-78 = system: SNB-78
HOP-18 = system: HOP-18
HCT-116 = system: HCT-116
HOP-92 = system: HOP-92
XF498 = system: XF498

Measured: GI50

O=C1C2Cc3ccccc3CN2C(=O)N1CCN1CCOCC1 (stereo unspecified)
inactive: M19-MEL > 100 µM | DMS-273 > 100 µM | OVCAR-8 > 100 µM | COLO 205 > 100 µM | UO-31 > 100 µM | CAKI-1 > 100 µM | SW-620 > 100 µM | UACC-62 > 100 µM | IGROV-1 > 100 µM | MOLT-4 > 100 µM | KM-20L2 > 100 µM | RPMI-8226 > 100 µM | TK-10 > 100 µM | HOP-62 > 100 µM | M14 > 100 µM | Malme-3M > 100 µM | NCI-H23 > 100 µM | SK-MEL-2 > 100 µM | RXF 631 > 100 µM | DLD-1 > 100 µM | K562 > 100 µM | SF-539 > 100 µM | NCI-H460 > 100 µM | DMS-114 > 100 µM | U-251 > 100 µM | SN12C > 100 µM | OVCAR-5 > 100 µM | OVCAR-3 > 100 µM | A549 > 100 µM | SNB-19 > 100 µM | 786-0 > 100 µM | SF-295 > 100 µM | LOX IMVI > 100 µM | LXFL 529 > 100 µM | HL-60 > 100 µM | SK-MEL-5 > 100 µM | SR > 100 µM | KM12 > 100 µM | NCI-H522 > 100 µM | OVCAR-4 > 100 µM | ACHN > 100 µM | CCRF-CEM > 100 µM | SF-268 > 100 µM | HCC 2998 > 100 µM | NCI-H226 > 100 µM | SK-MEL-28 > 100 µM | A498 > 100 µM
> 100 µM: HCT-15

N#C/C(=C/c1cccnc1)C(=O)c1ccccc1
inactive: M19-MEL > 100 µM | RXF 393 > 100 µM | DMS-273 > 100 µM | OVCAR-8 > 100 µM | COLO 205 > 100 µM | UO-31 > 100 µM | SNB-75 > 100 µM | CAKI-1 > 100 µM | SW-620 > 100 µM | SK-OV-3 > 100 µM | EKVX > 100 µM | UACC-62 > 100 µM | MOLT-4 > 100 µM | HT-29 > 100 µM | KM-20L2 > 100 µM | RPMI-8226 > 100 µM | TK-10 > 100 µM | HOP-62 > 100 µM | M14 > 100 µM | UACC-257 > 100 µM | Malme-3M > 100 µM | NCI-H23 > 100 µM | SK-MEL-2 > 100 µM | DLD-1 > 100 µM | SNB-78 > 100 µM | HOP-18 > 100 µM | K562 > 100 µM | SF-539 > 100 µM | NCI-H460 > 100 µM | HCT-116 > 100 µM | DMS-114 > 100 µM | U-251 > 100 µM | SN12C > 100 µM | OVCAR-5 > 100 µM | OVCAR-3 > 100 µM | A549 > 100 µM | SNB-19 > 100 µM | 786-0 > 100 µM | SF-295 > 100 µM | LOX IMVI > 100 µM | LXFL 529 > 100 µM | HL-60 > 100 µM | SK-MEL-5 > 100 µM | SR > 100 µM | HOP-92 > 100 µM | KM12 > 100 µM | NCI-H522 > 100 µM | OVCAR-4 > 100 µM | ACHN > 100 µM | CCRF-CEM > 100 µM | SF-268 > 100 µM | HCC 2998 > 100 µM | NCI-H226 > 100 µM | SK-MEL-28 > 100 µM | XF498 > 100 µM
> 100 µM: HCT-15

O=C(CC1(O)C(=O)Nc2c(Cl)cc(Cl)cc21)c1ccc([N+](=O)[O-])cc1 (stereo unspecified)
> 55.3 µM: HCT-15
inactive: M19-MEL 10.3 µM | RXF 393 > 100 µM | DMS-273 > 62.4 µM | OVCAR-8 > 51.5 µM | COLO 205 > 58.5 µM | UO-31 17.4 µM | SNB-75 29.2 µM | CAKI-1 > 53.8 µM | SW-620 28.3 µM | SK-OV-3 > 100 µM | EKVX 43.4 µM | UACC-62 28.1 µM | IGROV-1 > 52.2 µM | MOLT-4 > 59.4 µM | HT-29 > 58.9 µM | KM-20L2 > 78 µM | RPMI-8226 26.9 µM | TK-10 > 100 µM | HOP-62 > 100 µM | M14 > 41.6 µM | UACC-257 33.3 µM | Malme-3M > 43.9 µM | NCI-H23 29.9 µM | SK-MEL-2 > 56.4 µM | DLD-1 > 43.4 µM | SNB-78 > 47.8 µM | HOP-18 > 100 µM | K562 43.4 µM | SF-539 > 46.7 µM | NCI-H460 86.5 µM | HCT-116 > 42.2 µM | DMS-114 23.8 µM | U-251 31.7 µM | SN12C > 45.7 µM | OVCAR-5 > 100 µM | OVCAR-3 33.7 µM | A549 > 79.8 µM | SNB-19 > 100 µM | 786-0 85.3 µM | SF-295 > 66.1 µM | LOX IMVI > 100 µM | LXFL 529 25.6 µM | HL-60 7.89 µM | SK-MEL-5 22.8 µM | SR > 51.3 µM | HOP-92 24.3 µM | KM12 > 54.8 µM | NCI-H522 19.4 µM | OVCAR-4 17.5 µM | ACHN 38.6 µM | CCRF-CEM 26.7 µM | SF-268 > 50.8 µM | HCC 2998 38 µM | NCI-H226 30.6 µM | SK-MEL-28 > 44 µM | A498 29.9 µM | XF498 56.5 µM

COc1cccc(NC(=O)/C(Cc2nc3ccccc3nc2C)=N/NC(=O)C[n+]2ccccc2)c1
inactive: M19-MEL > 100 µM | DMS-273 63.4 µM | OVCAR-8 > 100 µM | COLO 205 20.8 µM | UO-31 > 100 µM | SNB-75 > 100 µM | CAKI-1 > 100 µM | SW-620 9.08 µM | SK-OV-3 > 100 µM | EKVX > 100 µM | UACC-62 > 100 µM | IGROV-1 > 100 µM | MOLT-4 > 100 µM | HT-29 > 100 µM | KM-20L2 > 100 µM | RPMI-8226 26.5 µM | TK-10 > 100 µM | HOP-62 > 100 µM | M14 > 100 µM | UACC-257 45.4 µM | Malme-3M > 100 µM | NCI-H23 > 100 µM | SK-MEL-2 > 100 µM | DLD-1 > 100 µM | SNB-78 > 100 µM | HOP-18 > 100 µM | K562 71.9 µM | SF-539 > 100 µM | NCI-H460 66.4 µM | HCT-116 67.1 µM | DMS-114 > 100 µM | U-251 17.7 µM | SN12C > 100 µM | OVCAR-5 > 100 µM | OVCAR-3 > 100 µM | A549 > 100 µM | SNB-19 > 100 µM | 786-0 > 100 µM | SF-295 > 100 µM | LOX IMVI > 100 µM | LXFL 529 > 100 µM | HL-60 > 100 µM | SK-MEL-5 > 100 µM | SR > 100 µM | KM12 > 100 µM | OVCAR-4 > 100 µM | ACHN > 100 µM | CCRF-CEM 51.5 µM | SF-268 > 100 µM | HCC 2998 > 100 µM | NCI-H226 > 100 µM | SK-MEL-28 > 100 µM | A498 > 100 µM | XF498 > 100 µM
> 100 µM: HCT-15

CCOC(=O)C1C(c2ccc([N+](=O)[O-])cc2)NC(c2ccc([N+](=O)[O-])cc2)C(C(=O)OC)S1(=O)=O (stereo unspecified)
inactive: M19-MEL > 100 µM | RXF 393 > 100 µM | DMS-273 > 100 µM | OVCAR-8 > 100 µM | COLO 205 > 100 µM | UO-31 > 100 µM | SNB-75 > 100 µM | CAKI-1 > 100 µM | SW-620 > 100 µM | SK-OV-3 > 100 µM | EKVX > 100 µM | UACC-62 > 100 µM | IGROV-1 > 100 µM | MOLT-4 > 100 µM | HT-29 > 100 µM | KM-20L2 > 100 µM | RPMI-8226 > 100 µM | TK-10 > 100 µM | HOP-62 > 100 µM | M14 > 100 µM | UACC-257 > 100 µM | Malme-3M > 100 µM | NCI-H23 > 100 µM | SK-MEL-2 > 100 µM | DLD-1 > 100 µM | SNB-78 > 100 µM | HOP-18 > 100 µM | K562 > 100 µM | NCI-H460 > 100 µM | HCT-116 > 100 µM | DMS-114 > 100 µM | U-251 > 100 µM | SN12C > 100 µM | OVCAR-5 > 100 µM | OVCAR-3 > 100 µM | A549 > 100 µM | SNB-19 > 100 µM | 786-0 > 100 µM | SF-295 > 100 µM | LOX IMVI > 100 µM | LXFL 529 > 100 µM | HL-60 > 100 µM | SR > 100 µM | KM12 > 100 µM | NCI-H522 > 100 µM | OVCAR-4 > 100 µM | ACHN > 100 µM | CCRF-CEM > 100 µM | SF-268 > 100 µM | HCC 2998 > 100 µM | NCI-H226 > 100 µM | SK-MEL-28 > 100 µM | XF498 > 100 µM
> 100 µM: HCT-15
